This note sets out measurements from patent US10919891B2, “Heterocyclic compound” (TAKEDA PHARMACEUTICAL COMPANY LIMITED, priority 2017, dated 2021).

In one data set the test system is CYP3A. Briefly: CYP Induction (CYP3A activity in cryopreserved hepatocytes, P450-Glo CYP3A4 assay). It is filed as in vitro ADME. Conditions: % of positive control (inducibility by 10 μmol/L rifampicin = 100%); hepatocytes treated 3 days. As for the experimental part: Cryopreserved hepatocytes were thawed in a culture medium (In VitroGRO™ CP Medium, Celsis In Vitro Technologies, U.S.A.), and the resultant was added to BioCoat™ Matrigel® Matrix Thin-Layer 96 well (Becton, Dickinson and Company, U.S.A.) at a concentration of 40,000 cells/well. After culturing for 24 hours, the culture medium was removed, and replaced with an incubation medium (In VitroGRO™, HI Medium with Torpedo Antibiotic Mix, Celsis In Vitro Technologies, U.S.A.). Cells were cultured for an additional 3 days. The medium was removed on day 4, and the remained cells were treated in the induction medium containing a test compound for 3 days in the presence or absence of 10 μmol/L rifampicin. The induction medium was replaced every day. The test compound addition wells in the presence of 10 μmol/L rifampicin were used to evaluate the inhibitory effect of the test compound on the inducibility of the CYP3A activity by rifampicin. The CYP3A activity was evaluated by measuring luciferin generating amount after the addition of 2 μmol/L luciferin-IPA using IPA P450-Glo™ CYP3A4 assay systems (Promega Corporation, U.S.A.). All cultures were carried out under a humidified environment at 37° C., 5% CO2. The inducibility by rifampicin was defines as 100%, and the inducibility of the test compound (% of positive control) was calculated from the following equation: [(luciferin fluorescence intensity in the absence of rifampicin and the presence of test compound)−(luciferin fluorescence intensity in the absence of rifampicin and test compound)/(luciferin fluorescence intensity in the presence of rifampicin and the absence of test compound)−(Luciferin fluorescence intensity in the absence of rifampicin and test compound)]×100.

For the next data set, the target named is T1, human CaSR (Homo sapiens, UniProt P41180).
T1 construct: expressed in transfected cells; host or cells: CHO cells
T1 sequence (P41180 20-1078): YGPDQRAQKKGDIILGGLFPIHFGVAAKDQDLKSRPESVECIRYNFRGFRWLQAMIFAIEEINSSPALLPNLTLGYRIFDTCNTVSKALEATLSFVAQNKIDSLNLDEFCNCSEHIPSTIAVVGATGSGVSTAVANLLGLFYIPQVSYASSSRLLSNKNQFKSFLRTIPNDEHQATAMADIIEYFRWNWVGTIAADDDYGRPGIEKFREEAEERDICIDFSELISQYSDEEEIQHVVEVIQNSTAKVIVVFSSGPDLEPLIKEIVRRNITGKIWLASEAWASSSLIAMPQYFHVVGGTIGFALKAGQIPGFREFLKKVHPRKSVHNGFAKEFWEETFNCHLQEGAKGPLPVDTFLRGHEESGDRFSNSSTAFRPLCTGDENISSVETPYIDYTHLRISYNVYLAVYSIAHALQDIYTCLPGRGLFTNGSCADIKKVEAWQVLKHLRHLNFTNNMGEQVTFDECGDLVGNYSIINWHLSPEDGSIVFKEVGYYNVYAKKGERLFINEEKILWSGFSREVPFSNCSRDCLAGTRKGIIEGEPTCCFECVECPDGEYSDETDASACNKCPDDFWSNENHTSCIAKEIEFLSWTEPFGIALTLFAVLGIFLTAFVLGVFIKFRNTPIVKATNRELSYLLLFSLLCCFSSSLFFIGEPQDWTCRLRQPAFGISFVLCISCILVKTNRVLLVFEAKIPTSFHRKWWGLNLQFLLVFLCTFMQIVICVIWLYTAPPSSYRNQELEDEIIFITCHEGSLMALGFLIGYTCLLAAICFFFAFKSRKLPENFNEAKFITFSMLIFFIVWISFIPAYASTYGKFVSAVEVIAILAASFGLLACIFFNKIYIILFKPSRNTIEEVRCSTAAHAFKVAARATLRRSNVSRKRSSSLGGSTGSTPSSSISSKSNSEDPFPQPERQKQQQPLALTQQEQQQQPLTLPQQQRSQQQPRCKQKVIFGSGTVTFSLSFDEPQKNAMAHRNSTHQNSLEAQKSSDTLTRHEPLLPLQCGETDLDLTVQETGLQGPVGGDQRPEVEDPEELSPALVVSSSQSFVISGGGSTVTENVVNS
Briefly: Human CaSR Antagonist Activity (CHO cells, NFAT-Luciferase reporter). Format: cell-based. Conditions: CHO, 2 h, 3.3 μm test compound; CaCl2 final 1.3 mM; 100% = reference carboxamide at 10 μM; read-out: Inhibition rate (%) at 3.3 μm. The procedure: CaSR antagonist activity measurement was performed using Bright-Glo Luciferase assay system (Promega Corporation). CHO cells in which human CaSR and NFAT-Luciferase reporter gene were forcibly expressed were suspended in MEM alpha (Wako Pure Chemical Industries, Ltd.) containing 10% dialyzed serum (HyClone). The cells in suspension was seeded in 384-well white plate (Corning) at 10,000/20 μL/well, and cultured in an incubator of 37° C., 5% CO2 for one day. A diluent of Test compound was prepared with assay buffer (MEM alpha containing 10 mM HEPES (Life Technologies) and 10% dialysis serum). The diluent was added to the plate at 5 μL/well and allowed to stand at 37° C. for 10 minutes. Further, a diluent of 7.8 mM CaCl2 prepared with assay buffer (final concentration 1.3 mM) was added at 5 μl/well and allowed to stand in an incubator of 37° C., 5% CO2 for 2 hours. Bright-Glo reagents (Promega Corporation) were added at 10 μL/well, and the obtained mixture was stirred for 5 minutes, and then luminescence intensity was measured using Multi-label reader Envision (PerkinElmer, Inc.). The activity (%) of the test compound was calculated with the definitions in which the luminescence intensity when DMSO is added in place of the test compound is defined as 0% inhibition; and the luminescence intensity when (5R)—N-(1-ethyl-1-(4-ethylphenyl)propyl)-2,7,7-trimethyl-5-phenyl-4,5,6,7-tetrahydropyrazolo[1,5-a]Pyrimidine-3-carboxamide at final concentration of 10 μM is added is defined as 100% inhibition.
A general note: A reporter such as luciferase makes a cellular process visible.

Each structure is given as a SMILES string.

Turning to `CC1(C)C[C@H](c2ccccc2)Nc2c(C(=O)N3C[C@@H]4C[C@]4(c4ccc(Cl)c(Cl)c4)C3)cnn21` [Example 1, ((1S,5R)-1-(3,4-Dichlorophenyl)-3-azabicyclo[3.1.0]hex-3-yl)((5R)-7,7-dimethyl-5-phenyl-4,5,6,7-tetrahydropyrazolo[1,5-a]pyrimidin-3-yl)methanone], in the data set with CYP3A, the “Inducibility (%)” value is listed as 4.9%. Besides, the inhibition (usually the relative decrease from the control value, in per cent) at 3.3 µM on human CaSR stood at 100%.
